Experimental data published in article PMC7436013, “Design, Synthesis, and Biological Investigation of Novel Classes of 3-Carene-Derived Potent Inhibitors of TDP1” (Molecules, 2020).
Entries after “also recorded” stand apart in the source; their conditions may differ. Each block holds one compound with its values, some of them ahead of it.

How the values were obtained:
TDP1 [1] = test system: TDP1; parameters: method as in PMID 31619021, PMID 30396105, PMID 30142660, PMID 29562592, PMID 27658793; settings: Figure 1; ref [10]-[13],[16]-[18],[20],[22]; read-out: IC50 of known TDP1 inhibitors; cited from earlier work
[2] = test system: human breast adenocarcinoma cell line MCF-7; parameters: method as in PMID 27658793; settings: ref [16]; cited from earlier work
TDP1 [3] = molecular target: T1, TDP1 (Homo sapiens, UniProt Q9NUW8); assay: Real-time detection of TDP1 activity with fluorescent oligonucleotide biosensor; assay type: biochemical; settings: for IC50: real-time fluorescent oligonucleotide biosensor, 1.5 nM TDP1, 50 nM substrate, read-out: IC50, TDP1 inhibition
T1 construct: made in house; host or cells: Escherichia coli
T1 sequence (Q9NUW8 whole entry): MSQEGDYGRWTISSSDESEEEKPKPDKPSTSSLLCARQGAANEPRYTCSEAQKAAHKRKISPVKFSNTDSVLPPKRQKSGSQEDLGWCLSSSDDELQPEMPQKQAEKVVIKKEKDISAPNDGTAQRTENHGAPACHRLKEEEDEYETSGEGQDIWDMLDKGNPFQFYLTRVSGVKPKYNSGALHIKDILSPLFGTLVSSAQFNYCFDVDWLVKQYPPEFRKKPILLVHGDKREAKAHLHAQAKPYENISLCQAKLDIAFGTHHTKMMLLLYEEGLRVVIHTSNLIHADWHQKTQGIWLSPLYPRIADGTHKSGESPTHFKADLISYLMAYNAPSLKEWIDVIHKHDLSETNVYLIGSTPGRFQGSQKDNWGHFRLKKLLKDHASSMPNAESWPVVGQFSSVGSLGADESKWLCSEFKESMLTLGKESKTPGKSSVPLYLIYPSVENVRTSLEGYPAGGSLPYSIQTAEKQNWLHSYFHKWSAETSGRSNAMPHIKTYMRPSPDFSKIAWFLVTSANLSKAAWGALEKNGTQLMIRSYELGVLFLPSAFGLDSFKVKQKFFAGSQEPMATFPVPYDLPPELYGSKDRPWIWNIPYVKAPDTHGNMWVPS
Protocol: The compounds synthesized starting from (+)-3-carene 8 were tested for their TDP1 inhibitory properties by measuring their IC50 values using a real-time fluorescent oligonucleotide biosensor [38].
A fluorophore quencher-coupled oligonucleotide biosensor was used for TDP1 enzyme activity real-time fluorescence detection. […] Recombinant protein TDP1 was expressed in Escherichia coli (pET 16B plasmid containing TDP1 cDNA was provided by Dr. K.W. Caldecott, University of Sussex, United Kingdom) and isolated as described by Lebedeva et al.. The reaction mixture contained TDP1 reaction buffer (50 mM Tris-HCl, 50 mM NaCl, 7 mM β-mercaptoethanol), 50 nM oligonucleotide substrate, varied concentrations of the tested compounds, and 1.5 nM purified TDP1 in a final volume of 200 μL.
The TDP1 reaction mixture was incubated at rt in a POLARstar OPTIMA fluorimeter (BMG LABTECH, GmbH). Fluorescence intensity was measured every 1 min (Ex485/Em520 nm). The efficiency of TDP1 inhibition was evaluated by comparing the rate of increase in the fluorescence of the biosensor in the presence of the compound to that of DMSO (1.5%) control wells. IC50 values were determined using an 11-point concentration–response curve. The data were imported into MARS Data Analysis 2.0 program (BMG LABTECH) and the slope during the linear phase was calculated. The IC50 measurements were carried out in at least three independent experiments.

in vivo Parkinson model = settings: ref [24]; cited from earlier work
[4] = ref [24]; cited from earlier work
[5] = test system: HeLa (cervical carcinoma); assay: Colorimetric cytotoxicity test, HeLa; assay type: cell-based, human
Protocol: (§1) The cytotoxicity of the compounds was examined against human cell lines HEK293FT (human embryonic kidney), WT and TDP1-deficient (TDP1-/-), HCT116 (human colon cancer), IMR-32 (human neuroblastoma cell line), HeLa (cervical cancer), and Krebs-2 carcinoma ascites using MTT and EZ4U colorimetric tests or an xCELLigence DP Real-Time Cell Analyzer (ACEA Biosciences, San Diego, CA, USA) for HEK293FT in cells exposed to the compounds. The cells were grown in DMEM/F12 or IMDM (for IMR-32 and Krebs-2) medium (Gibco), with 1x GlutaMAX (Gibco), 50 IU/mL penicillin, 50 μg/mL streptomycin (MP Biomedicals, Irvine, CA, USA) and in the presence of 10% fetal bovine serum (Biolot). The cells (~20,000 cells per well) were incubated for 24 h at 37 °C in 5% CO2, and then treated with the tested compounds (the volume of the added reagents was 1/100 of the total volume of the culture medium, the amount of DMSO was 1% of the final volume as indicated). Control cells were grown in the presence of 1% DMSO where indicated. After 72 h of cell incubation, the relative amount of living cells was determined using a colorimetric test of the amount of formazan converted from 3-(4,5-dimethylthiazol-2-yl)-2,5-diphenyl-2H-tetrazolium bromide (MTT test) or EZ4U Cell Proliferation and Cytotoxicity Assay (Biomedica, Austria), as per the manufacturer’s protocols. The real-time detection of the living cells was done by an xCELLigence DP Real-Time Cell Analyzer (ACEA Biosciences). The measurements were carried out in three parallel experiments.

HEK293FT WT cells = assay: Colorimetric cytotoxicity test (MTT/EZ4U), HEK293FT WT; assay type: cell-based, human; settings: Tpc 200 nM
Protocol: (§2) We analyzed, using a colorimetric test, the relative amount of viable cells after treating HEK293FT WT and TDP1-deficient (TDP1−/−) cells with increasing concentrations of Tpc for 72 h. […] Next, we studied WT and mutant cells’ live activity after Tpc treatment on the xCELLigence System (ACEA Biosciences, USA) by the impedance-based assay. HEK293FT TDP1−/− cells were more sensitive to Tpc (Figure 2B). After Tpc administration to the cells, an […] of the slope was seen, characterizing the velocity of the cell growth with Tpc as compared to the control both for WT (red columns) and mutant cells (green columns) (Figure S1, Supplementary Materials). […] The sharper decrease of the slope for the mutant cells than for the WT (compare the histogram for the 0 and 0.05 μM Tpc concentration, ~1.5 times for WT cells (red) and ~6 times for TDP1−/−cells (green)) also characterizes the higher sensitivity of the mutant to the TOP1 inhibitor. […] There was a three-fold difference for these IC50 values, which is nearly the same as for the colorimetric assay.
as §1

HEK293FT TDP1−/− cells = assay: Colorimetric cytotoxicity test (MTT/EZ4U), HEK293FT TDP1-/-; assay type: cell-based, human; settings: Tpc 30 nM
Protocol: as §2, §1

[6] = test system: IMR-32 (human neuroblastoma cell line); assay: Colorimetric cytotoxicity test, IMR-32; assay type: cell-based
Protocol: as §1

Krebs-2 carcinoma cells = assay: Colorimetric cytotoxicity test, Krebs-2; assay type: cell-based
Protocol: as §1, with “The real-time detection of the living cells was done by an xCELLigence DP Real-Time Cell Analyzer (ACEA Biosciences). The measurements were carried out in three parallel experiments.” left out

[7] = test system: HCT116 (human colon cancer); assay: Colorimetric cytotoxicity test, HCT116; assay type: cell-based
Protocol: as §1

SMILES: CC(=O)C[C@H]1CC2C(CCC3C[C@H](OC(C)=O)CC[C@@]32C)C2CC[C@H]([C@H](C)CCC(=O)NC34CC5CC(CC(C5)C3)C4)[C@]21C (stereo partly drawn) [compound 2]
IC50 (TDP1 [1]): 470 nM

SMILES: CC1(C)C2CC=C(COc3ccc4c5c(c(=O)oc4c3)CCC5)C1C2 (stereo not drawn) [compound 4]
reduction of the CC50 of camptothecin [2]: eight-fold
IC50 (TDP1 [1]): 680 nM

IC50 (TDP1 [3]): 4850 ± 1060 nM
SMILES: CC1=C[C@@H]2[C@@H](c3cccs3)OC(C)(C)[C@@H]2CC1 [11d, (1S,3aR,7aS)-3,3,6-trimethyl-1-(thiophen-2-yl)-1,3,3a,4,5,7a-hexahydroisobenzofuran]

IC50 (TDP1 [3]): 2250 ± 630 nM
SMILES: CC1=CC[C@@H]2C[C@H]1[C@H](c1sccc1C)OC2(C)C [12e, (1R,4R,5R)-2,2,6-trimethyl-4-(3-methylthiophen-2-yl)-3-oxabicyclo[3.3.1]non-6-ene]

SMILES: COc1cc(C2OC(C)(C)[C@@H]3CCC(C)=C[C@H]23)ccc1O (mixture of isomers) [11a]
neuroprotective activity (in vivo Parkinson model): potent neuroprotective activity
acute toxicity [4]: low acute toxicity
activity against TDP1 (in words) (TDP1 [3]): do not exhibit activity
IC50 (TDP1 [3]): > 20000 nM

IC50 (TDP1 [3]): 1750 ± 780 nM
SMILES: CC1=CC[C@@H]2C[C@H]1[C@H](c1ccc(Br)s1)OC2(C)C [12h, (1R,4R,5R)-2,2,6-trimethyl-4-(5-bromothiophen-2-yl)-3-oxabicyclo[3.3.1]non-6-ene]

IC50 (TDP1 [3]): 4700 ± 2000 nM
SMILES: CC1=C[C@@H]2[C@@H](c3ccc(C)s3)OC(C)(C)[C@@H]2CC1 [11f, (1S,3aR,7aS)-3,3,6-trimethyl-1-(5-methylthiophen-2-yl)-1,3,3a,4,5,7a-hexahydroisobenzofuran]

IC50 (TDP1 [3]): 3600 ± 1700 nM
SMILES: CC1=C[C@@H]2[C@@H](c3sccc3C)OC(C)(C)[C@@H]2CC1 [11e, (1S,3aR,7aS)-3,3,6-trimethyl-1-(3-methylthiophen-2-yl)-1,3,3a,4,5,7a-hexahydroisobenzofuran]

IC50 (TDP1 [3]): 1200 ± 140 nM
SMILES: CC1=CC[C@@H]2C[C@H]1[C@H](c1ccsc1)OC2(C)C [12k, (1R,4R,5R)-2,2,6-trimethyl-4-(thiophen-3-yl)-3-oxabicyclo[3.3.1]non-6-ene]
intrinsic cytotoxicity [5]: low
enhancement of the Tpc cytotoxicity ([5]; data not shown): no enhancement
effect of TDP1 inhibitor in conjunction with Tpc on cell growth (HEK293FT WT cells): cell growth suppression; also recorded: synergistic effect; also recorded: Suppressed cell growth
effect of TDP1 inhibitor in conjunction with Tpc on cell growth (HEK293FT TDP1−/− cells): not found; also recorded: no effect
intrinsic cytotoxicity ([6]; IMR-32): low
dose-dependent action of Tpc in the presence of inhibitor ([6]; IMR-32, Figure 4C): synergistic action
dose-dependent action of inhibitor in the presence of Tpc on cell growth ([6]; IMR-32, Tpc 8 nM, Figure 4B): suppressed cell growth
intrinsic cytotoxicity (Krebs-2 carcinoma cells): low
intrinsic cytotoxicity ([7]; HCT116): low
dose-dependent action of inhibitor in the presence of Tpc on cell growth ([7]; HCT, Tpc 900 nM, Figure 4B): no effect

IC50 (TDP1 [3]): 3350 ± 1060 nM
SMILES: CC1=CC[C@@H]2C[C@H]1[C@H](c1cccs1)OC2(C)C [12d, (1R,4R,5R)-2,2,6-trimethyl-4-(thiophen-2-yl)-3-oxabicyclo[3.3.1]non-6-ene]
